Assays:
[1] = system: SI-PI-II (marker for plant proteinase inhibitors); experiment: Transcriptional response of SI-PI-II in tomato plants exposed to volatiles (laboratory); assay type: in vivo, Solanum lycopersicum cv. Moneymaker; conditions: intact tomato plants exposed 24 h; filter paper, 1:10,000 ester:methanol; n=8
Protocol: (§1) Moneymaker tomato plants were used. Two weeks after seed germination, the seedlings were individually transplanted into pots (8×8×8 cm). The plants were kept at 25±2° C., with a constant relative humidity of 65%±5% and a 14:10 h (light:dark) photoperiod. Tomato plants that had not received any pesticide treatment at four weeks of age (about 20 cm tall) were used. All volatiles used were obtained from Sigma-Aldrich (St. Louis, Mo., USA). Each volatile was exposed by using a 2×2 cm piece of filter paper on which 10 μl of a solution containing the corresponding volatile at a concentration of 1:10,000 [(Z)-3-hexenyl ester:methanol] was impregnated as an emitting source of the corresponding volatile (Pérez-Hedo, M. et al. Biocontrol, 63: 203-213 (2018)).
(§2) To activate a plant, two pieces of filter paper impregnated with the volatile were placed at the bottom of a 30×30×30 cm plastic cage (BugDorm-1 Insect Tents; MegaView Science Co., Ltd, Taichung, Taiwan) into which the plant was introduced. A control treatment was carried out in which the two pieces of filter paper were impregnated with 10 μl of methanol. Eight repetitions per treatment were performed. The plants of the treatments were kept exposed to the volatile without disturbing for 24 hours in separate and isolated climatic chambers to avoid any interference from the volatiles and were kept at 25±2° C., 65±10% RH, and a 14:10 h (L:D) photoperiod. […]
(§3) The methodology followed for extracting and quantifying gene expression was described by Pérez-Hedo et al. Journal of Pest Science 3: 543-554 (2015). The primers used were forward primer: 5′-[…]-3′ (SEQ ID NO: 1) and reverse primer: 5′-[…]-3′ (SEQ ID NO: 2) for the quantification of PR1, forward primer: 5′-[…]-3′ (SEQ ID NO: 3) and reverse primer: 5′-[…]-3′ (SEQ ID NO: 4) for SI-PI-I, and forward primer: 5′-[…]-3′ (SEQ ID NO: 5) and reverse primer: 5′-[…]-3′ (SEQ ID NO: 6) for the SI-PI-II gene. […]

jasmonic acid pathway = conditions: corn exposed to the volatile; Engelberth et al. 2004; cited from earlier work
[2] = system: PR1 (marker gene for the salicylic acid signaling pathway); experiment: Transcriptional response of defense gene PR1 in tomato plants exposed to volatiles (laboratory); assay type: in vivo, Solanum lycopersicum cv. Moneymaker; conditions: intact tomato plants exposed 24 h; filter paper, 1:10,000 ester:methanol; n=8
Protocol: as §1, §2, §3

[3] = system: SI-PI-I (marker for plant proteinase inhibitors); experiment: Transcriptional response of SI-PI-I in tomato plants exposed to volatiles (laboratory); assay type: in vivo, Solanum lycopersicum cv. Moneymaker; conditions: intact tomato plants exposed 24 h; filter paper, 1:10,000 ester:methanol; n=8
Protocol: as §1, §2, §3

Bemisia tabaci = conditions: Pérez-Hedo et al. Biocontrol 2018; cited from earlier work
Encarsia formosa = conditions: Pérez-Hedo et al. Biocontrol 2018; cited from earlier work
T. absoluta = conditions: Pérez-Hedo et al. Biocontrol 2018; cited from earlier work

| Structure (SMILES) | Transcriptional response of SI-PI-II compared to the control [1] | Jasmonic acid pathway expression (jasmonic acid pathway) | Transcriptional response of PR1 compared to the control [2] | Transcriptional response of SI-PI-I compared to the control [3] | other results |
| --- | --- | --- | --- | --- | --- |
| CC/C=C\CCOC(C)=O [(Z)-3-hexenyl acetate] | significantly overexpressed | overexpress | significantly overexpressed | significantly overexpressed | – |
| CC/C=C\CCO [(Z)-3-hexen-1-ol] | – | overexpress | – | – | – |
| CC/C=C\CCOC(=O)CCC [(Z)-3-hexenyl butanoate] | significantly overexpressed | – | significantly overexpressed | significantly overexpressed | – |
| COC(=O)c1ccccc1O [methyl salicylate] | – | – | – | – | Effect of the volatile on B. tabaci (Bemisia tabaci): repellent; Effect of the volatile on E. formosa (Encarsia formosa): attractive; Effect of the volatile on T. absoluta (T. absoluta): no effect |
| CC/C=C\CC=O [(Z)-3-hexenal] | – | overexpress | – | – | – |

— US20230240290A1, “USE OF (Z)-3-HEXENYL ESTERS AND METHOD FOR PROTECTING PLANTS AGAINST PESTS” (UNIVERSITAT POLITÈCNICA DE VALÈNCIA, priority 2020, published 2023)
